Measured values taken from US10173991B2, “Sulfone amide linked benzothiazole inhibitors of endothelial lipase” (BRISTOL-MYERS SQUIBB COMPANY, priority 2014, dated 2019).

Molecular target: Endothelial lipase (EL) (Homo sapiens (Human), UniProt Q9Y5X9)
Assay: Endothelial lipase (EL) enzymatic assay with fluorescent substrate A10070 in DMPG vesicles
Format: biochemical
Method in brief: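 EL from conditioned medium of HT-1080 cells engineered to overexpress endogenous EL; HL partially purified from conditioned medium of HL-overexpressing COS cells. Enzyme preincubated with compound 30 min at 37° C in 50 mM HEPES pH 8.0, 50 mM NaCl, 1 mM CaCl2; DMPG vesicles carrying FRET substrate (0.11 mole fraction) then added.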

Sequence of Endothelial lipase (EL) (Q9Y5X9 21-500): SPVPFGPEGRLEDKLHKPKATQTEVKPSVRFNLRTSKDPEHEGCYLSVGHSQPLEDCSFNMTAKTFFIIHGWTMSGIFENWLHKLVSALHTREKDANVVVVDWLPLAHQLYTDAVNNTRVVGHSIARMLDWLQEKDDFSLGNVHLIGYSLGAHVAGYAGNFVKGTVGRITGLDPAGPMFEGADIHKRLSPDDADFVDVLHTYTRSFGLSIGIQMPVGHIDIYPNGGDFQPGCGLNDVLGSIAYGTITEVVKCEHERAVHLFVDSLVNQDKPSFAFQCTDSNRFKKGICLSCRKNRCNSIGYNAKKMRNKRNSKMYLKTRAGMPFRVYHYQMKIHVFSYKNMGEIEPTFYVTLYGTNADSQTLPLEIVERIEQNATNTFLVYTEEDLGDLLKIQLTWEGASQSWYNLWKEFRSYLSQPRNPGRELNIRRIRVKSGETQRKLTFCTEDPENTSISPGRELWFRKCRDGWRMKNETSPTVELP

SMILES	IC50
CN(C)S(=O)(=O)C(C(=O)NCC(=O)NC1CC1)c1nc2c(F)cc(-c3cccc(-n4cccn4)c3)cc2s1 (stereo not drawn) [Example 505, N-[(cyclopropyl-carbamoyl)methyl]-2-(dimethyl-sulfamoyl)-2-{4-fluoro-6-[3-(1H-pyrazol-1-yl)phenyl]-1,3-benzothiazol-2-yl}acetamide]	130 nM
Cc1ncc(-c2cc3sc(C(C(=O)NCC(=O)NC4CC4)S(=O)(=O)C(C)C)nc3cc2F)cn1 (stereo not drawn) [Example 231, N-[(cyclopropyl-carbamoyl)methyl]-2-[5-fluoro-6-(2-methylpyrimidin-5-yl)-1,3-benzothiazol-2-yl]-2-(propane-2-sulfonyl) acetamide]	11 nM
COCCS(=O)(=O)C(C(=O)NCC(=O)NC1CC1)c1nc2c(F)cc(-c3cnc(OC)c(F)c3)cc2s1 (stereo not drawn) [Example 206, N-[(cyclopropyl-carbamoyl)methyl]-2-[4-fluoro-6-(5-fluoro-6-methoxypyridin-3-yl)-1,3-benzothiazol-2-yl]-2-(2-methoxyethane-sulfonyl) acetamide]	9 nM
O=C(CNC(=O)C(c1nc2ccc(-c3ccc(C(=O)N4CCOCC4)cc3)cc2s1)S(=O)(=O)Cc1ccc(F)cc1)NC1CC1 (stereo not drawn) [Example 213, N-[(cyclopropyl-carbamoyl)methyl]-2-[(4-fluorophenyl)methanesulfonyl]-2-{6-[4-(morpholine-4-carbonyl)phenyl]-1,3-benzothiazol-2-yl}acetamide]	15 nM
CS(=O)(=O)C(C(=O)NCC(=O)NC1CC1)c1nc2cc(-c3ccc(F)nc3)ccc2s1 (stereo not drawn) [Example 333, N-[(cyclopropyl-carbamoyl)methyl]-2-[5-(6-fluoropyridin-3-yl)-1,3-benzothiazol-2-yl]-2-methanesulfonyl-acetamide]	13 nM
N#Cc1cccc(COC(=O)Nc2ccc(-c3cc4sc(C(C(=O)NCC(=O)NC5CC5)S(=O)(=O)CCC(F)(F)F)nc4cc3F)cc2)c1 (stereo not drawn) [Example 522, (3-cyanophenyl) methyl N-{4-[2-({[(cyclopropyl-carbamoyl)methyl]carbamoyl}(3,3,3-trifluoropropane-sulfonyl)methyl)-5-fluoro-1,3-benzothiazol-6-yl]phenyl} carbamate]	1 nM
COCCS(=O)(=O)C(C(=O)NCC(=O)NC1CC1)c1nc2ccc(-c3ccc(C(=O)NC(C)(C)COC)cc3)cc2s1 (stereo not drawn) [Example 561, 4-[2-({[(cyclopropyl-carbamoyl)methyl]carbamoyl}(2-methoxyethane-sulfonyl)methyl)-1,3-benzothiazol-6-yl]-N-(1-methoxy-2-methylpropan-2-yl)benzamide]	3 nM
CS(=O)(=O)C(C(=O)NCC(=O)NC1CC1)c1nc2cc(F)c(-c3ccc(C(=O)NCCC#N)cc3)cc2s1 (stereo not drawn) [Example 41, N-(2-cyanoethyl)-4-[2-({[(cyclopropyl-carbamoyl)methyl]carbamoyl} (methanesulfonyl)methyl)-5-fluoro-1,3-benzothiazol-6-yl]benzamide]	5 nM
O=C(CNC(=O)C(c1nc2ccc(-c3ccc(C(=O)N4CCOCC4)cc3)cc2s1)S(=O)(=O)c1ccc(F)cc1)NC1CC1 (stereo not drawn) [Example 448, N-[(cyclopropyl-carbamoyl)methyl]-2-(4-fluorobenzene-sulfonyl)-2-{6-[4-(morpholine-4-carbonyl)phenyl]-1,3-benzothiazol-2-yl}acetamide]	10 nM
Cc1cc(-c2cc3sc(C(C(=O)NCC(=O)NC4CC4)S(C)(=O)=O)nc3cc2F)ccn1 (stereo not drawn) [Example 250, N-[(cyclopropyl-carbamoyl)methyl]-2-[5-fluoro-6-(2-methylpyridin-4-yl)-1,3-benzothiazol-2-yl]-2-methanesulfonyl-acetamide]	11 nM
COCCS(=O)(=O)C(C(=O)NCC(=O)NCC(F)(F)F)c1nc2ccc(-c3ccc(F)nc3)cc2s1 (stereo not drawn) [Example 378, 2-[6-(6-fluoropyridin-3-yl)-1,3-benzothiazol-2-yl]-2-(2-methoxyethane-sulfonyl)-N-{[(2,2,2-trifluoroethyl)carbamoyl]methyl} acetamide]	198 nM
CCOc1ccc(-c2ccc3nc(C(C(=O)NCC(=O)NC4CC4)S(=O)(=O)CCOC)sc3c2)cn1 (stereo not drawn) [Example 299, N-[(cyclopropyl-carbamoyl)methyl]-2-[6-(6-ethoxypyridin-3-yl)-1,3-benzothiazol-2-yl]-2-(2-methoxyethane-sulfonyl)acetamide]	118 nM
COCCNC(=O)c1ccc(-c2ccc3nc(C(C(=O)NCC(=O)NC4CC4)S(C)(=O)=O)sc3c2)cc1OC (stereo not drawn) [Example 410, 4-[2-({[(cyclopropyl-carbamoyl)methyl]carbamoyl} (methanesulfonyl)methyl)-1,3-benzothiazol-6-yl]-2-methoxy-N-(2-methoxyethyl) benzamide]	53 nM
CC(C)S(=O)(=O)C(C(=O)NCC(=O)NC1CC1)c1nc2cc(F)c(-c3ccc(NC(=O)OCC4CC4)cc3)cc2s1 (stereo not drawn) [Example 528]	1 nM
COCCS(=O)(=O)C(C(=O)NCC(=O)NC1CC1)c1nc2cc(-c3cncnc3)c(C)cc2s1 (stereo not drawn) [Example 183, N-[(cyclopropyl-carbamoyl)methyl]-2-(2-methoxyethane-sulfonyl)-2-[6-methyl-5-(pyrimidin-5-yl)-1,3-benzothiazol-2-yl]acetamide]	39 nM
CS(=O)(=O)C(C(=O)NCC(=O)NC1CC1)c1nc2cc(OC(F)F)c(-c3cccc(-n4cccn4)c3)cc2s1 (stereo not drawn) [Example 605, N-[(cyclopropyl-carbamoyl)methyl]-2-[5-(difluoromethoxy)-6-[3-(1H-pyrazol-1-yl)phenyl]-1,3-benzothiazol-2-yl]-2-methanesulfonyl-acetamide]	3 nM

Second part, the compound after the results:

IC50	SMILES
48 nM	COCCS(=O)(=O)C(C(=O)NCC(=O)NC1CC1)c1nc2ccc(-c3ccnc(OC)c3F)cc2s1 (stereo not drawn) [Example 343, N-[(cyclopropyl-carbamoyl)methyl]-2-[6-(3-fluoro-2-methoxypyridin-4-yl)-1,3-benzothiazol-2-yl]-2-(2-methoxyethane-sulfonyl)acetamide]
7 nM	COCCS(=O)(=O)C(C(=O)NCC(=O)NC1CC1)c1nc2ccc(-c3cccnc3F)cc2s1 (stereo not drawn) [Example 318, N-[(cyclopropyl-carbamoyl)methyl]-2-[6-(2-fluoropyridin-3-yl)-1,3-benzothiazol-2-yl]-2-(2-methoxyethane-sulfonyl)acetamide]
12 nM	COCCS(=O)(=O)C(C(=O)NCC(=O)NC1CC1)c1nc2cc(F)c(-c3cnc(OC)c(N)c3)cc2s1 (stereo not drawn) [Example 140]
313 nM	COCCS(=O)(=O)C(C(=O)NCC(=O)NC1CC1)c1nc2ccc(-c3ccnn3C)cc2s1 (stereo not drawn) [Example 313, N-[(cyclopropyl-carbamoyl)methyl]-2-(2-methoxyethane-sulfonyl)-2-[6-(1-methyl-1H-pyrazol-5-yl)-1,3-benzothiazol-2-yl]acetamide]
14 nM	COCCS(=O)(=O)C(C(=O)NCC(=O)NC1CC1)c1nc2ccc(-c3ccnc(O)c3)cc2s1 (stereo not drawn) [Example 600, N-[(cyclopropyl-carbamoyl)methyl]-2-[6-(2-hydroxypyridin-4-yl)-1,3-benzothiazol-2-yl]-2-(2-methoxyethane-sulfonyl)acetamide]
3 nM	COCCOC(=O)Nc1ccc(-c2cc3sc(C(C(=O)NCC(=O)NC4CC4)S(C)(=O)=O)nc3cc2F)cc1 (stereo not drawn) [Example 533, 2-methoxyethyl N-{4-[2-({[(cyclopropyl-carbamoyl)methyl]carbamoyl} (methanesulfonyl)methyl)-5-fluoro-1,3-benzothiazol-6-yl]phenyl} carbamate]
2 nM	COCCS(=O)(=O)C(C(=O)NCC(=O)NC1CC1)c1nc2cc(Cl)c(-c3ccc(NC(=O)OC)cc3)cc2s1 (stereo not drawn) [Example 94, methyl N-{4-[5-chloro-2-({[(cyclopropyl-carbamoyl)methyl]carbamoyl}(2-methoxyethane-sulfonyl)methyl)-1,3-benzothiazol-6-yl]phenyl} carbamate]
150 nM	COCCS(=O)(=O)C(C(=O)NCC(=O)NC1CC1)c1nc2ccc(-c3cccc(F)n3)cc2s1 (stereo not drawn) [Example 314, N-[(cyclopropyl-carbamoyl)methyl]-2-[6-(6-fluoropyridin-2-yl)-1,3-benzothiazol-2-yl]-2-(2-methoxyethane-sulfonyl)acetamide]
25 nM	COCCS(=O)(=O)C(C(=O)NCC(=O)NC1CC1)c1nc2cc(-c3ccc(Cl)nc3)ccc2s1 (stereo not drawn) [Example 72, 2-[5-(6-chloropyridin-3-yl)-1,3-benzothiazol-2-yl]-N-[(cyclopropyl-carbamoyl)methyl]-2-(2-methoxyethane-sulfonyl) acetamide]
2 nM	COCCS(=O)(=O)C(C(=O)NCC(=O)NC1CC1)c1nc2cc(F)c(-c3ccc4[nH]c(=O)ccc4c3)cc2s1 (stereo not drawn) [Example 149, N-[(cyclopropyl-carbamoyl)methyl]-2-[5-fluoro-6-(2-oxo-1,2-dihydroquinolin-6-yl)-1,3-benzothiazol-2-yl]-2-(2-methoxyethane-sulfonyl) acetamide]
30 nM	COCCS(=O)(=O)C(C(=O)NCC(=O)NC1CC1)c1nc2cc(-c3ccc(NC(C)=O)cc3)ccc2s1 (stereo not drawn) [Example 106, N-[(cyclopropyl-carbamoyl)methyl]-2-[5-(4-acetamidophenyl)-1,3-benzothiazol-2-yl]-2-(2-methoxyethane-sulfonyl)acetamide]
52 nM	COCCS(=O)(=O)C(C(=O)NCC(=O)NC1CC1)c1nc2ccc(-c3cncc(Cl)c3)cc2s1 (stereo not drawn) [Example 304]
9 nM	COCCS(=O)(=O)C(C(=O)NCC(=O)NC1CC1)c1nc2cc(F)c(-c3ccc4c(c3)CCCN4C(=O)OC(C)(C)C)cc2s1 (stereo not drawn) [Example 418, tert-butyl 6-[2-({[(cyclopropyl-carbamoyl)methyl]carbamoyl}(2-methoxyethane-sulfonyl)methyl)-5-fluoro-1,3-benzothiazol-6-yl]-1,2,3,4-tetrahydro-quinoline-1-carboxylate]
92 nM	COCCS(=O)(=O)C(C(=O)NCC(=O)NC1CC1)c1nc2cc(F)c(-c3ccccc3NC(=O)OC)cc2s1 (stereo not drawn) [Example 537, methyl N-{2-[2-({[(cyclopropyl-carbamoyl)methyl]carbamoyl}(2-methoxyethane-sulfonyl)methyl)-5-fluoro-1,3-benzothiazol-6-yl]phenyl} carbamate]
